Data as given in US8067616B2 (Nereus Pharmaceuticals, Inc., priority 2006, dated 2011).

Tests used:
[1] = biological target: caspase-like activity of purified rabbit 20S proteasomes (Oryctolagus cuniculus, UniProt G1T235); test: In vitro inhibition of caspase-like activity of purified rabbit muscle 20S proteasome (Z-LLE-AMC); assay type: biochemical; conditions: IC50 Values, purified rabbit 20S proteasome
[2] = test system: chymotrypsin-like activity of the 20S proteasome in RPMI 8226 cells; test: Chymotrypsin-like activity of proteasomes in RPMI 8226 cells after 1 hr exposure, measured in cell lysates (Suc-LLVY-AMC); assay type: cell-based, human; conditions: for % inhibition of the 20S proteasome chymotrypsin-like activity in RPMI 8826 cells: 1 hr incubation
Description: RPMI 8226 (ATCC, CCL-155), the human multiple myeloma cell line, was cultured in RPMI 1640 medium supplemented with 2 mM L-Glutamine, 1% Penicillin/Streptomycin, 10 mM HEPES and 10% Fetal Bovine Serum at 37° C., 5% CO2 and 95% humidified air. To evaluate the inhibitory effects on the chymotrypsin-like activity of the 20S proteasome, test compounds prepared in DMSO were appropriately diluted in culture medium and added to 1×10^6/ml RMPI 8226 cells at final concentration of 1, 5 or 10 nM. DMSO was used as the vehicle control at a final concentration of 0.1%. Following 1 hr incubation of RMPI 8226 cells with the compounds, the cells were pelleted by centrifugation at 2,000 rpm for 10 sec at room temperature and washed 3× with ice-cold 1× Dubach's Phosphate-Buffered Saline (DPBS, Mediatech, Herndon, Va.). DPBS washed cells were lysed on ice for 15 min in lysis buffer (20 mM HEPES, 0.5 mM EDTA, 0.05% Triton X-100, pH 7.3) supplemented with protease inhibitor cocktail (Roche Diagnostics, Indianapolis, Ind.). Cell debris was pelleted by centrifugation at 14,000 rpm for 10 min, 4° C. and supernatants (=cell lysates) were transferred to a new tube. Protein concentration was determined by the BCA protein assay kit (Pierce Biotechnology, Rockford, Ill.). […] The reactions were initiated by the addition of 10 μL of 0.4 mM Suc-LLVY-AMC (prepared by diluting a 10 mM solution of the peptide in DMSO 1:25 with assay buffer) to 190 μL of the cell lysates in 96-well Costar microtiter plate and incubated in the Thermo Lab Systems Fluoroskan plate reader at 37° C. Fluorescence of the cleaved peptide substrate was measured at λex=390 nm and λem=460 nm. All data were collected every five minutes for 2 hour. The total protein used for each assay was 20 μg. The final concentration of Suc-LLVY-AMC and DMSO was 20 μM and 0.2%, respectively. After subtraction of the background (the values from wells containing buffer and substrate in the absence of cell lysate), the activity of test compound was expressed as % inhibition as normalized to the proteasome activity observed in the DMSO treated control cells.

`C[C@@]12OC(=O)[C@]1([C@@H](O)[C@@H]1C=CCCC1)NC(=O)[C@@H]2CCCl` [XVI-1A, Salinosporamide A] was tested, and the IC50 ([1]; XVI-1A obtained by fermentation) was 387 nM, the IC50 ([1]; XVI-1A obtained synthetically) was 467 nM and the “% inhibition of the 20S proteasome chymotrypsin-like activity in RPMI 8826 cells” value (“% inhibition” for short) ([2]; fermentation XVI-1A, 1 nM) was 38%. For the same compound, the “% inhibition” value ([2]; fermentation XVI-1A, 5 nM) was 86%, the “% inhibition” value ([2]; fermentation XVI-1A, 10 nM) was 97% and the “inhibition of the 20S proteasome chymotrypsin-like activity on exposure of RPMI 8226 cells” value ([2]; fermentation or synthetic XVI-1A, 1, 5 or 10 nM) was “dose-dependent inhibition”. For the same compound, the “% inhibition” value ([2]; synthetic XVI-1A, 1 nM) was 32%, the “% inhibition” value ([2]; synthetic XVI-1A, 5 nM) was 79% and the “% inhibition” value ([2]; synthetic XVI-1A, 10 nM) was 96%.
